Reference: patent US20230293458A1, “MULTIBIOTIC AGENTS AND METHODS OF USING THE SAME” (Flagship Pioneering Innovations V, Inc., priority 2017, published 2023)

Key:
[1] = Stability of multibiotic agents in Simulated Gastric Fluid (SGF); type: in vitro ADME; details: simulated gastric fluid pH 1.6 with pepsin, 37° C., 1 μM
Description: Assay 3. Stability of multibiotic agents in Simulated Gastric Fluid (SGF). This assay can be used to assess the stability of a multibiotic agent in a stomach.
Medium was prepared by dissolving 2 g of sodium chloride in 0.6 L in ultrapure water (MilliQ®, Millipore Sigma, Darmstadt, Germany). The pH was adjusted to 1.6 with 1 N hydrochloric acid, and the volume was then adjusted to 1 L with purified water.
60 mg FaSSIF powder (Biorelevant™, London, UK) were dissolved in 500 mL buffer (above). Pepsin was added (0.1 mg/mL) (Millipore Sigma, Darmstadt, Germany), and the solution was stirred. The resulting SGF media were used fresh for each experiment.
Test compounds were dissolved in DMSO stock to 1 mM. An aliquot of the DMSO stock solution was removed and diluted in the SGF Media in 15 mL falcon tubes to generate a total compound concentration of 1 μM. A 1 mL aliquot was immediately removed and diluted once with 1 volume of acetonitrile for T0 timepoint. The mixture was sealed and mixed at 37° C. in an incubator. Aliquots (1 mL) were removed at regular intervals and immediately quenched by the addition of 1 volume of acetonitrile. The resulting samples were analyzed by LC/MS to determine degradation rates in SGF.

[2] = Stability of multibiotic agents in Simulated Intestinal Fluid (SIF); type: in vitro ADME; details: simulated intestinal fluid pH 6.7 with pancreatin, 37° C., 1 μM
Description: Assay 2. Stability of multibiotic agents in Simulated Intestinal Fluid (SIF). This assay can be used to assess the stability of a multibiotic agent in a small intestine. Phosphate buffer was prepared by dissolving 0.42 g of sodium hydroxide pellets and 3.95 g of monobasic sodium phosphate monohydrate and 6.19 g of sodium chloride in ultrapure water (MilliQ®, Millipore Sigma, Darmstadt, Germany). The pH was adjusted to 6.7 using aq. HCl and aq. NaOH, as necessary, and the solution was diluted with ultrapure water to produce 1 L of the pH 6.7 buffer. 112 mg FaSSIF powder (Biorelevant™, London, UK) was dissolved in 50 mL of the pH 6.7 buffer. 2 to 3 mL of the resulting solution were then added to 500 mg pancreatin (Millipore Sigma, Darmstadt, Germany). The resulting mixture was agitated by finger tapping the vessel containing the mixture until milky suspension formed. At this time, the remainder of the 50 mL FaSSiF/pH 6.7 buffer solution was added. The resulting suspension was flipped upside down 10 times to produce SIF, which was used fresh. Test compounds are dissolved in DMSO stock to 1 mM. An aliquot of the DMSO stock solution is removed and diluted in the SIF media in 15 mL falcon tubes to produce a mixture with a tested compound concentration of 1 μM. A 1 mL aliquot is immediately removed and diluted once with 1 volume of acetonitrile for T0 timepoint. The mixture is sealed and agitated at 37° C. in an incubator. Aliquots (1 mL) are removed at regular intervals and immediately quenched by the addition of 1 volume of acetonitrile. The resulting samples are analyzed by LC/MS to determine degradation rates.

Row | Compound | Assay 2 (SGF) (% Remaining @ 4 hours) [1] | Assay 3 (SIF) (% @ Remaining 4 hours) [2]
1 | Cc1ncc(CO)c(COC(=O)/C=C/c2c[nH]c3ccccc23)c1OC(=O)/C=C/c1c[nH]c2ccccc12 [Example 142, [5-(hydroxymethyl)-3-[(E)-3-(1H-indol-3-yl)prop-2-enoyl]oxy-2-methyl-4-pyridyl]methyl (E)-3-(1H-indol-3-yl)prop-2-enoate] | C (>75% of the tested compound remaining) | C (>75% of the tested compound remaining)
2 | CCCC(=O)OC[C@H](OC(=O)CCC)[C@@H](COC(=O)CCC)OC(=O)CCC [Example 82, (2R,3S)-butane-1,2,3,4-tetrayl tetrabutyrate] | C (>75% of the tested compound remaining) | B (25-75% of the tested compound remaining)
3 | CC(=O)OCc1cnc(C)c(OC(C)=O)c1COC(C)=O [Example 99, [5-acetoxy-4-(acetoxymethyl)-6-methyl-3-pyridyl] methyl acetate] | C (>75% of the tested compound remaining) | C (>75% of the tested compound remaining)
4 | CCCC(=O)NCCCN(CCCCN(CCCNC(=O)CCC)C(=O)CCC)C(=O)CCC [Example 128, N-[3-[butanoyl-[4-[butanoyl-[3-(butanoylamino)propyl]amino]butyl]amino]propyl]butanamide] | C (>75% of the tested compound remaining) | C (>75% of the tested compound remaining)
5 | CCCC(=O)OC[C@H]1OC(O)[C@H](OC(=O)CCC)[C@@H](OC(=O)CCC)[C@@H]1OC(=O)CCC (stereo partly drawn) [Example 161, [(2R,3R,4S,5R)-3,4,5-tri(butanoyloxy)-6-hydroxy-tetrahydropyran-2-yl]methyl butanoate] | C (>75% of the tested compound remaining) | A (<25% of the tested compound remaining)
6 | CCCC(=O)Oc1ccc(C2CC(=O)c3c(OC(=O)CCC)cc(OC(=O)CCC)cc3O2)cc1 (stereo not drawn) [Example 171, [4-[5,7-di(butanoyloxy)-4-oxo-chroman-2-yl]phenyl] butanoate] | B (25-75% of the tested compound remaining) | A (<25% of the tested compound remaining)
7 | CC(=O)OCC[C@@H](C)OC(=O)Oc1ccc(/C=C/c2cc(OC(=O)O[C@H](C)CCOC(C)=O)cc(OC(=O)O[C@H](C)CCOC(C)=O)c2)cc1 [Example 178, [(3R)-3-[4-[(E)-2-[3,5-bis[[(1R)-3-acetoxy-1-methyl-propoxy]carbonyloxy]phenyl]vinyl]phenoxy]carbonyloxybutyl] acetate] | C (>75% of the tested compound remaining) | A (<25% of the tested compound remaining)
8 | CCCC(=O)Oc1ccc(/C=C/C(=O)CC(=O)/C=C/c2ccc(OC(=O)CCC)c(OC)c2)cc1OC [Example 14, [4-[(1E,6E)-7-(4-butanoyloxy-3-methoxy-phenyl)-3,5-dioxo-hepta-1,6-dienyl]-2-methoxy-phenyl] butanoate] | C (>75% of the tested compound remaining) | C (>75% of the tested compound remaining)
9 | CCCC(=O)Nc1ccc(O)c(C(=O)O)c1 [Example 116, 5-(butanoylamino)-2-hydroxy-benzoic acid] | C (>75% of the tested compound remaining) | C (>75% of the tested compound remaining)
10 | O=C(CCc1c[nH]c2ccccc12)O[C@H]1[C@@H](OC(=O)CCc2c[nH]c3ccccc23)COC(O)[C@@H]1OC(=O)CCc1c[nH]c2ccccc12 (stereo partly drawn) [Example 148, [(3S,4S,5R)-6-hydroxy-4,5-bis[3-(1H-indol-3-yl)propanoyloxy]tetrahydropyran-3-yl] 3-(1H-indol-3-yl)propanoate] | C (>75% of the tested compound remaining) | A (<25% of the tested compound remaining)
11 | CCCC(=O)OCC(C)(C)[C@@H](OC(=O)CCC)C(=O)NCCC(N)=O [Example 95, [(3R)-4-[(3-amino-3-oxo-propyl)amino]-3-butanoyloxy-2,2-dimethyl-4-oxo-butyl] butanoate] | C (>75% of the tested compound remaining) | C (>75% of the tested compound remaining)
12 | CCCC(=O)OCC(OC(=O)CCC)[C@@H](OC(=O)CCC)[C@H](OC(=O)CCC)C(OC(=O)CCC)C(=O)O (stereo in doubt) [Example 113, (2S,3S,4R,5S)-2,3,4,5,6-penta(butanoyloxy)hexanoic acid] | C (>75% of the tested compound remaining) | B (25-75% of the tested compound remaining)
13 | C=C1CC[C@H](OC(=O)C2OCC[C@@H](C)O2)C/C1=C/C=C1\CCC[C@]2(C)[C@@H]([C@H](C)CCCC(C)C)CC[C@@H]12 (stereo partly drawn) [Example 186, [(1S,3Z)-3-[(2E)-2-[(1R,3aS,7aR)-1-[(1R)-1,5-dimethylhexyl]-7a-methyl-2,3,3a,5,6,7-hexahydro-1H-inden-4-ylidene]ethylidene]-4-methylene-cyclohexyl] (4R)-4-methyl-1,3-dioxane-2-carboxylate] | C (>75% of the tested compound remaining) | C (>75% of the tested compound remaining)
14 | CC(=O)OC1OC[C@H](OC(C)=O)[C@H](OC(C)=O)[C@H]1OC(C)=O (stereo partly drawn) [Example 138, [(3S,4S,5R)-4,5,6-triacetoxytetrahydropyran-3-yl] acetate] | C (>75% of the tested compound remaining) | C (>75% of the tested compound remaining)
15 | O=C(Cc1c[nH]c2ccccc12)O[C@H]1[C@@H](OC(=O)Cc2c[nH]c3ccccc23)COC(O)[C@@H]1OC(=O)Cc1c[nH]c2ccccc12 (stereo partly drawn) [Example 147, [(3S,4S,5R)-6-hydroxy-4,5-bis[[2-(1H-indol-3-yl)acetyl]oxy]tetrahydropyran-3-yl] 2-(1H-indol-3-yl)acetate] | C (>75% of the tested compound remaining) | B (25-75% of the tested compound remaining)
16 | CC(=O)Oc1ccc(-c2oc3cc(OC(C)=O)cc(OC(C)=O)c3c(=O)c2OC(C)=O)cc1 [Example 169, [4-(3,5,7-triacetoxy-4-oxo-chromen-2-yl)phenyl] acetate] | C (>75% of the tested compound remaining) | A (<25% of the tested compound remaining)
17 | C[C@@H](O)CC(=O)O[C@H]1CO[C@H]2[C@@H]1OC[C@H]2OC(=O)C[C@@H](C)O [Example 78, [(3S,3aR,6R,6aR)-6-[(3R)-3-hydroxybutanoyl]oxy-2,3,3a,5,6,6a-hexahydrofuro[3,2-b]furan-3-yl] (3R)-3-hydroxybutanoate] | C (>75% of the tested compound remaining) | B (25-75% of the tested compound remaining)
18 | CC(=O)OC[C@H]1O[C@@H](Oc2c(C)c(C)c3c(c2C)CC[C@@](C)(CCC[C@H](C)CCC[C@H](C)CCCC(C)C)O3)[C@H](OC(C)=O)[C@@H](OC(C)=O)[C@@H]1OC(C)=O [Example 180, [(2R,3R,4S,5R,6S)-3,4,5-triacetoxy-6-[(2R)-2,5,7,8-tetramethyl-2-[(4R,8R)-4,8,12-trimethyltridecyl]chroman-6-yl]oxy-tetrahydropyran-2-yl]methyl acetate] | C (>75% of the tested compound remaining) | C (>75% of the tested compound remaining)
